In US11051515B2, “3-acyl-benzamides and their use as herbicides” (Bayer Aktiengesellschaft, priority 2017, dated 2021):

What was measured:
AMARE [1] = test: Post-emergence action against AMARE; format: in vivo, Amaranthus retroflexus; details: post-emergence, dosage 80 g/ha, visual assessment about 3 weeks after treatment vs untreated controls
Procedure, shortened: (§1)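 Weeds grown in sandy loam in greenhouse, treated at one-leaf stage (2–3 weeks after sowing) with WP or EC formulations sprayed as aqueous suspension/emulsion at 600 to […] water with 0.2% wetting agent. Visual rating after about 3 weeks versus untreated controls, as % herbicidal action (100% = plants dead, 0% = like control).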

HORMU = test: Pre-emergence action against HORMU; format: in vivo, Hordeum murinum; details: Dosage 320 g/ha
Source text: (§2) Seeds of monocotyledonous and dicotyledonous weed plants and crop plants are laid out in sandy loam soil in wood-fiber pots and covered with soil. The compounds of the invention, formulated in the form of wettable powders (WP) or as emulsion concentrates (EC), are then applied to the surface of the covering soil in the form of an aqueous suspension or emulsion at a water application rate equating to […], with addition of 0.2% wetting agent. After the treatment, the pots are placed in a greenhouse and kept under good growth conditions for the trial plants. The damage to the test plants is scored visually after a test period of 3 weeks by comparison with untreated controls (herbicidal activity in percent (%): 100% activity=the plants have died, 0% activity=like control plants).

ABUTH [2] = test: Pre-emergence action against ABUTH; format: in vivo, Abutilon theophrasti; details: pre-emergence, dosage 320 g/ha, scored visually after 3 weeks vs untreated controls
Procedure, shortened: (§3)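 Seeds sown in sandy loam in wood-fiber pots and covered with soil. Greenhouse growth; visual damage scored after 3 weeks versus untreated controls (100% = dead, 0% = like control).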

POLCO [3] = test: Pre-emergence action against POLCO; format: in vivo, Polygonum convolvulus; details: Dosage 320 g/ha, pre-emergence
Procedure, shortened: as §3

VIOTR [4] = test: Pre-emergence action against VIOTR; format: in vivo, Viola tricolor; details: Dosage 320 g/ha, pre-emergence
Procedure, shortened: as §3

SETVI [5] = test: Post-emergence action against SETVI; format: in vivo, Setaria viridis; details: post-emergence, dosage 80 g/ha, visual assessment about 3 weeks after treatment vs untreated controls
Procedure, shortened: as §1

SETVI [6] = test: Pre-emergence action against SETVI; format: in vivo, Setaria viridis; details: pre-emergence, dosage 320 g/ha, scored visually after 3 weeks vs untreated controls
Procedure, shortened: as §3

PHBPU [7] = test: Pre-emergence action against PHBPU; format: in vivo, Pharbitis purpurea; details: Dosage 320 g/ha, pre-emergence
Procedure, shortened: as §3

VIOTR [8] = test: Post-emergence action against VIOTR; format: in vivo, Viola tricolor; details: post-emergence, dosage 80 g/ha
Procedure, shortened: as §1

STEME [9] = test: Post-emergence action against STEME; format: in vivo, Stellaria media; details: post-emergence, dosage 80 g/ha
Procedure, shortened: as §1

VERPE [10] = test: Post-emergence action against VERPE; format: in vivo, Veronica persica; details: dosage 80 g/ha
Procedure, shortened: as §1

POLCO [11] = test: Post-emergence action against POLCO; format: in vivo, Polygonum convolvulus; details: post-emergence, dosage 80 g/ha
Procedure, shortened: as §1

ALOMY [12] = test: Pre-emergence action against ALOMY; format: in vivo, Alopecurus myosuroides; details: dosage 320 g/ha; pre-emergence; scored visually after 3 weeks vs untreated controls; 100% = plants have died, 0% = like control plants
Procedure, shortened: as §3

AMARE [13] = test: Pre-emergence action against AMARE; format: in vivo, Amaranthus retroflexus; details: pre-emergence, dosage 320 g/ha, scored visually after 3 weeks vs untreated controls
Procedure, shortened: as §3

VERPE [14] = test: Pre-emergence action against VERPE; format: in vivo, Veronica persica; details: Dosage 320 g/ha, pre-emergence
Procedure, shortened: as §3

CYPES [15] = test: Pre-emergence action against CYPES; format: in vivo, Cyperus esculentus; details: pre-emergence, dosage 320 g/ha, scored visually after 3 weeks vs untreated controls
Procedure, shortened: as §3

ECHCG [16] = test: Post-emergence action against ECHCG; format: in vivo, Echinochloa crus-galli; details: post-emergence, dosage 80 g/ha, visual assessment about 3 weeks after treatment vs untreated controls
Procedure, shortened: as §1

AVEFA [17] = test: Pre-emergence action against AVEFA; format: in vivo, Avena fatua; details: dosage 320 g/ha, scored visually after 3 weeks vs untreated controls
Procedure, shortened: as §3

STEME [18] = test: Pre-emergence action against STEME; format: in vivo, Stellaria media; details: Dosage 320 g/ha, pre-emergence
Procedure, shortened: as §3

ABUTH [19] = test: Post-emergence action against ABUTH; format: in vivo, Abutilon theophrasti; details: post-emergence, dosage 80 g/ha, visual assessment about 3 weeks after treatment vs untreated controls
Procedure, shortened: as §1

MATIN [20] = test: Post-emergence action against MATIN; format: in vivo, Matricaria inodora; details: post-emergence, dosage 80 g/ha, visual assessment about 3 weeks after treatment vs untreated controls
Procedure, shortened: as §1

PHBPU [21] = test: Post-emergence action against PHBPU; format: in vivo, Pharbitis purpurea; details: post-emergence, dosage 80 g/ha
Procedure, shortened: as §1

ECHCG [22] = test: Pre-emergence action against ECHCG; format: in vivo, Echinochloa crus-galli; details: pre-emergence, dosage 320 g/ha, scored visually after 3 weeks vs untreated controls
Procedure, shortened: as §3

MATIN [23] = test: Pre-emergence action against MATIN; format: in vivo, Matricaria inodora; details: Dosage 320 g/ha, pre-emergence
Procedure, shortened: as §3

LOLRI = test: Pre-emergence action against LOLRI; format: in vivo, Lolium rigidum; details: dosage 320 g/ha, scored visually after 3 weeks vs untreated controls
Source text: as §2

ALOMY [24] = test: Post-emergence action against ALOMY; format: in vivo, Alopecurus myosuroides; details: Dosage 80 g/ha, post-emergence
Procedure, shortened: as §1

AVEFA [25] = test: Post-emergence action against AVEFA; format: in vivo, Avena fatua; details: post-emergence, dosage 80 g/ha, visual assessment about 3 weeks after treatment vs untreated controls
Procedure, shortened: as §1

CYPES [26] = test: Post-emergence action against CYPES; format: in vivo, Cyperus esculentus; details: post-emergence, dosage 80 g/ha, visual assessment about 3 weeks after treatment vs untreated controls
Procedure, shortened: as §1

CCn1nnnc1NC(=O)c1ccc(C(F)F)c(C(C)=O)c1SC [2-65]
100%: Post-emergence action against AMARE (herbicidal action in percent) (AMARE [1]) | Pre-emergence action against ABUTH (herbicidal activity) (ABUTH [2]) | Pre-emergence action against VIOTR (VIOTR [4]) | Post-emergence action against SETVI (herbicidal action in percent) (SETVI [5]) | SETVI (Table B8, pre-emergence herbicidal activity) (SETVI [6]) | Pre-emergence action against PHBPU (PHBPU [7]) | Pre-emergence action against ALOMY (herbicidal activity in percent) (ALOMY [12]) | Pre-emergence action against AMARE (herbicidal activity) (AMARE [13]) | Pre-emergence action against VERPE (VERPE [14]) | Pre-emergence action against AVEFA (herbicidal activity) (AVEFA [17]) | Pre-emergence action against STEME (STEME [18]) | Post-emergence action against ABUTH (herbicidal action in percent) (ABUTH [19]) | Post-emergence action against MATIN (herbicidal action in percent) (MATIN [20]) | Pre-emergence action against ECHCG (herbicidal activity) (ECHCG [22])
90: Post-emergence action against PHBPU (PHBPU [21])
90%: Pre-emergence action against POLCO (POLCO [3]) | Pre-emergence action against CYPES (herbicidal activity) (CYPES [15]) | Pre-emergence action against MATIN (MATIN [23])
80%: Pre-emergence action against HORMU (HORMU) | Post-emergence action against ECHCG (herbicidal action in percent) (ECHCG [16])
80: Post-emergence action against VERPE (VERPE [10])
100: Post-emergence action against VIOTR (VIOTR [8]) | Post-emergence action against STEME (STEME [9]) | Post-emergence action against POLCO (POLCO [11])

CCCC(=O)c1c(C(F)(F)F)ccc(C(=O)Nc2nnnn2CC)c1Cl [2-139]
100%: Post-emergence action against AMARE (herbicidal action in percent) (AMARE [1]) | Pre-emergence action against ABUTH (herbicidal activity) (ABUTH [2]) | Pre-emergence action against VIOTR (VIOTR [4]) | SETVI (Table B8, pre-emergence herbicidal activity) (SETVI [6]) | Pre-emergence action against PHBPU (PHBPU [7]) | Pre-emergence action against ALOMY (herbicidal activity in percent) (ALOMY [12]) | Pre-emergence action against AMARE (herbicidal activity) (AMARE [13]) | Pre-emergence action against VERPE (VERPE [14]) | Pre-emergence action against CYPES (herbicidal activity) (CYPES [15]) | Pre-emergence action against LOLRI (herbicidal activity) (LOLRI) | Pre-emergence action against STEME (STEME [18]) | Pre-emergence action against ECHCG (herbicidal activity) (ECHCG [22]) | Pre-emergence action against MATIN (MATIN [23])
100: Post-emergence action against VIOTR (VIOTR [8]) | Post-emergence action against STEME (STEME [9]) | Post-emergence action against PHBPU (PHBPU [21])
90%: Post-emergence action against ECHCG (herbicidal action in percent) (ECHCG [16]) | Post-emergence action against ABUTH (herbicidal action in percent) (ABUTH [19]) | Post-emergence action against MATIN (herbicidal action in percent) (MATIN [20])
80%: Pre-emergence action against HORMU (HORMU) | Pre-emergence action against AVEFA (herbicidal activity) (AVEFA [17])

CCn1nnnc1NC(=O)c1ccc(C(F)(F)F)c(C(=O)C(C)C)c1Cl [2-140]
90: Post-emergence action against PHBPU (PHBPU [21])
100%: Pre-emergence action against ABUTH (herbicidal activity) (ABUTH [2]) | Pre-emergence action against VIOTR (VIOTR [4]) | SETVI (Table B8, pre-emergence herbicidal activity) (SETVI [6]) | Pre-emergence action against PHBPU (PHBPU [7]) | Pre-emergence action against AMARE (herbicidal activity) (AMARE [13]) | Pre-emergence action against VERPE (VERPE [14]) | Post-emergence action against ECHCG (herbicidal action in percent) (ECHCG [16]) | Pre-emergence action against STEME (STEME [18]) | Post-emergence action against ABUTH (herbicidal action in percent) (ABUTH [19]) | Pre-emergence action against ECHCG (herbicidal activity) (ECHCG [22]) | Pre-emergence action against MATIN (MATIN [23])
90%: Pre-emergence action against ALOMY (herbicidal activity in percent) (ALOMY [12]) | Pre-emergence action against LOLRI (herbicidal activity) (LOLRI) | Post-emergence action against MATIN (herbicidal action in percent) (MATIN [20])
100: Post-emergence action against VIOTR (VIOTR [8]) | Post-emergence action against STEME (STEME [9])
80: Post-emergence action against VERPE (VERPE [10]) | Post-emergence action against POLCO (POLCO [11])
80%: Pre-emergence action against AVEFA (herbicidal activity) (AVEFA [17]) | Post-emergence action against ALOMY (ALOMY [24]) | Post-emergence action against AVEFA (herbicidal action in percent) (AVEFA [25]) | Post-emergence action against CYPES (herbicidal action in percent) (CYPES [26])

CCCn1nnnc1NC(=O)c1ccc(C(F)F)c(C(C)=O)c1SC [3-65]
100%: Pre-emergence action against HORMU (HORMU) | Pre-emergence action against ABUTH (herbicidal activity) (ABUTH [2]) | Pre-emergence action against POLCO (POLCO [3]) | Pre-emergence action against VIOTR (VIOTR [4]) | Post-emergence action against SETVI (herbicidal action in percent) (SETVI [5]) | SETVI (Table B8, pre-emergence herbicidal activity) (SETVI [6]) | Pre-emergence action against PHBPU (PHBPU [7]) | Pre-emergence action against AMARE (herbicidal activity) (AMARE [13]) | Pre-emergence action against VERPE (VERPE [14]) | Pre-emergence action against AVEFA (herbicidal activity) (AVEFA [17]) | Pre-emergence action against STEME (STEME [18]) | Post-emergence action against ABUTH (herbicidal action in percent) (ABUTH [19]) | Pre-emergence action against ECHCG (herbicidal activity) (ECHCG [22]) | Pre-emergence action against MATIN (MATIN [23])
80%: Pre-emergence action against ALOMY (herbicidal activity in percent) (ALOMY [12]) | Post-emergence action against CYPES (herbicidal action in percent) (CYPES [26])
90: Post-emergence action against PHBPU (PHBPU [21])
80: Post-emergence action against VERPE (VERPE [10]) | Post-emergence action against POLCO (POLCO [11])
100: Post-emergence action against VIOTR (VIOTR [8]) | Post-emergence action against STEME (STEME [9])
90%: Post-emergence action against AMARE (herbicidal action in percent) (AMARE [1]) | Post-emergence action against ECHCG (herbicidal action in percent) (ECHCG [16]) | Post-emergence action against MATIN (herbicidal action in percent) (MATIN [20])
